Here are results for 15 compounds from patent publication US20240409536A1, “COMPOUNDS AND METHODS FOR MODULATING SPLICING” (REMIX THERAPEUTICS INC., priority 2021, published 2024).

One series has as its system HTT mRNA. The series is described as follows: Gene panel canonical junction qPCR assay, HTT CJ mRNA decrease. In kind it is cell-based, human. To be noted: Homo sapiens, canonical junction qPCR, read-out: HTT IC50 (decrease in CJ mRNA levels). In short, it runs like this: (§1)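 IC50 values describe loss of canonical-junction transcript, fitted by 4-parameter logistic to percent response derived from fixed ΔCt windows. Read-out: RT-qPCR on lysates of compound-treated K562 or A673 cells, probes overlapping the exon junction, ΔΔCt versus housekeeping gene and DMSO control.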

In the next series the test system is MYB mRNA. The series is described as follows: Gene panel canonical junction qPCR assay, MYB CJ mRNA decrease. In kind it is cell-based, human. To be noted: Homo sapiens, canonical junction qPCR, read-out: MYB IC50 (decrease in CJ mRNA levels). Summed up: as §1
(In general: Quantitative PCR measures a nucleic acid by following its amplification.)

A further series relates to SMN2 mRNA. The series is described as follows: Gene panel canonical junction qPCR assay, SMN2 CJ mRNA decrease. In kind it is cell-based, human. As to conditions: Homo sapiens, canonical junction qPCR, read-out: SMN2 IC50 (decrease in CJ mRNA levels). Summed up: as §1
For the next series, the system named is HiBiT-tagged MYB protein. The series is described as follows: HiBiT protein abundance assay, MYB (K562 HiBiT knock-in cells). In kind it is cell-based, human. To be noted: 24 hours. Summed up:
(§2)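 K562 cells with endogenous HiBiT knock-in tag, 10-point 3-fold dilutions (top 10 μM final, ≤0.25% DMSO), 24 h at 37 °C. Lytic Nano-Glo HiBiT luminescence, normalized to DMSO and unmodified K562 baselines; IC50 is concentration giving 50% protein abundance from four-parameter fit.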
Background: HiBiT is a short tag that completes a luciferase, so light tracks the accessible tagged protein.

In another series the test system is HiBiT-tagged HTT protein. As to the kind of experiment: HiBiT protein abundance assay, HTT (K562 HiBiT knock-in cells). In kind it is cell-based, human. As to conditions: 24 hours. In short, it runs like this: as §2
The subject of another series is Target C. The series is described as follows: HiBiT protein abundance assay, Target C (K562 HiBiT knock-in cells). To be noted: 24 hours. In kind it is cell-based, human. In short, it runs like this:
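K562 knock-in cells (10000/well, IMDM+1% FBS) treated 24 h at 37 °C with 10-point 3-fold dilutions, top final 10 μM, DMSO ≤0.25%. HiBiT lytic luminescence read; response normalized to unmodified K562 and DMSO-treated controls. IC50 interpolated at 50% abundance by four-parameter logistic fit.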

Another series concerns K562 cells. The series is described as follows: Cell Titer Glo 2.0 cell viability assay in K562 cells. As to conditions: 72 hours.

The IC50 is the midpoint of a concentration-inhibition curve. Take `CN[C@@H]1CCN(c2ccc(C(=O)Nc3cc(F)c4nc(C)cn4c3)c3nnccc23)C1` [Compound 238, (R)—N-(8-fluoro-2-methylimidazo[1,2-a]pyridin-6-yl)-5-(3-(methylamino)pyrrolidin-1-yl)cinnoline-8-carboxamide]: the IC50 in the series on HTT mRNA is 1000 to 10000 nM; with MYB mRNA, less than 100 nM; in the series on SMN2 mRNA it was less than 100 nM; in the series on HiBiT-tagged MYB protein, less than 100 nM; in the series with HiBiT-tagged HTT protein it was 100 to 1000 nM; with Target C, 1000 to 10000 nM. For the same compound, the Viability entry in the series with K562 cells is “B (B represents 100-1000 nM)”.
On to `CN[C@H]1CCN(c2ccc(C(=O)Nc3cc(F)c4nc(C)cn4c3)c3nnccc23)C1` [Compound 239, (S)—N-(8-fluoro-2-methylimidazo[1,2-a]pyridin-6-yl)-5-(3-(methylamino)pyrrolidin-1-yl)cinnoline-8-carboxamide], for which the IC50 with HTT mRNA is 1000 to 10000 nM; in the series with MYB mRNA, less than 100 nM; with SMN2 mRNA, less than 100 nM; with HiBiT-tagged MYB protein, less than 100 nM; in the series on HiBiT-tagged HTT protein it was 100 to 1000 nM; in the series with Target C, 1000 to 10000 nM. For the same compound, the Viability result in the series with K562 cells is listed as “B (B represents 100-1000 nM)”.
With `Cc1cn2cc(NC(=O)c3ccc(N4CC[C@@H](N(C)C)C4)c4nccnc34)cc(F)c2n1` [Compound 242, 8-[(3R)-3-(dimethylamino)pyrrolidin-1-yl]-N-{8-fluoro-2-methylimidazo[1,2-a]pyridin-6-yl}quinoxaline-5-carboxamide], the IC50 in the series with HTT mRNA is more than 10000 nM; in the series on MYB mRNA it was 100 to 1000 nM; with SMN2 mRNA it was less than 100 nM; in the series on HiBiT-tagged MYB protein, 100 to 1000 nM; in the series with HiBiT-tagged HTT protein, more than 10000 nM; in the series on Target C, more than 10000 nM. Besides, the Viability entry in the series with K562 cells is “B (B represents 100-1000 nM)”.
For the compound `COc1cnc2c(N3CC[C@@H](N(C)C)C3)ccc(C(=O)Nc3cc(F)c4nc(C)cn4c3)c2n1` [Compound 244, 8-[(3R)-3-(dimethylamino)pyrrolidin-1-yl]-N-{8-fluoro-2-methylimidazo[1,2-a]pyridin-6-yl}-3-methoxyquinoxaline-5-carboxamide], the IC50 with HTT mRNA is 100 to 1000 nM; in the series with MYB mRNA, less than 100 nM; in the series on SMN2 mRNA it was less than 100 nM; in the series with HiBiT-tagged MYB protein, less than 100 nM; with HiBiT-tagged HTT protein, 100 to 1000 nM; in the series on Target C it was 100 to 1000 nM. Also, the Viability entry in the series with K562 cells was “A (A represents <100 nM)”.
Turning to `Cc1cn2cc(NC(=O)c3ccc([C@H]4CCNC4)c4nccnc34)cc(F)c2n1` [Compound 246], the IC50 is 1000 to 10000 nM in the series with HTT mRNA; 100 to 1000 nM with MYB mRNA; less than 100 nM in the series with SMN2 mRNA; 100 to 1000 nM in the series on HiBiT-tagged MYB protein; 1000 to 10000 nM in the series with HiBiT-tagged HTT protein; 1000 to 10000 nM in the series on Target C. Further, the Viability result with K562 cells is reported as “B (B represents 100-1000 nM)”.
Turning to `Cc1cn2cc(NC(=O)c3ccc(N4CCN[C@@H](C(C)C)C4)c4nccnc34)cc(F)c2n1` [Compound 250, N-{8-fluoro-2-methylimidazo[1,2-a]pyridin-6-yl}-8-[(3S)-3-isopropylpiperazin-1-yl]quinoxaline-5-carboxamide], the IC50 in the series on HTT mRNA was more than 10000 nM; in the series with MYB mRNA, 100 to 1000 nM; in the series with SMN2 mRNA it was less than 100 nM; in the series with HiBiT-tagged MYB protein, 100 to 1000 nM; in the series with HiBiT-tagged HTT protein, more than 10000 nM; in the series with Target C it was more than 10000 nM. Moreover, the Viability result in the series on K562 cells was “B (B represents 100-1000 nM)”.
On to `Cc1cn2cc(NC(=O)c3ccc(N4CCN[C@@H](C5CC5)C4)c4nccnc34)cc(F)c2n1` [Compound 252, 8-[(3S)-3-cyclopropylpiperazin-1-yl]-N-{8-fluoro-2-methylimidazo[1,2-a]pyridin-6-yl}quinoxaline-5-carboxamide], for which the IC50 in the series with HTT mRNA is more than 10000 nM; in the series with MYB mRNA it was 100 to 1000 nM; in the series with SMN2 mRNA, less than 100 nM; in the series on HiBiT-tagged MYB protein, 100 to 1000 nM; in the series on HiBiT-tagged HTT protein, 1000 to 10000 nM; in the series with Target C, 1000 to 10000 nM. The Viability entry in the series on K562 cells was “B (B represents 100-1000 nM)”.
Turning to `Cc1cn2cc(NC(=O)c3ccc(N4CCN[C@H](C5CC5)C4)c4nccnc34)cc(F)c2n1` [Compound 253, 8-[(3R)-3-cyclopropylpiperazin-1-yl]-N-{8-fluoro-2-methylimidazo[1,2-a]pyridin-6-yl}quinoxaline-5-carboxamide], the IC50 was 1000 to 10000 nM with HTT mRNA; less than 100 nM in the series with MYB mRNA; less than 100 nM with SMN2 mRNA; less than 100 nM with HiBiT-tagged MYB protein; 1000 to 10000 nM with HiBiT-tagged HTT protein; 1000 to 10000 nM with Target C. In the series with K562 cells, the Viability entry was “A (A represents <100 nM)”.
Regarding `Cc1cn2cc(NC(=O)c3ccc(N4CCN5CCOC[C@@H]5C4)c4nccnc34)cc(F)c2n1` [Compound 255, (S)—N-(8-fluoro-2-methylimidazo[1,2-a]pyridin-6-yl)-8-(hexahydropyrazino[2,1-c][1,4]oxazin-8(1H)-yl)quinoxaline-5-carboxamide], the IC50 in the series with HTT mRNA, in the series on MYB mRNA, with SMN2 mRNA, in the series on HiBiT-tagged MYB protein, in the series on HiBiT-tagged HTT protein and with Target C was 100 to 1000 nM each time. The Viability result in the series with K562 cells is on record as “B (B represents 100-1000 nM)”.
As to `Cc1cn2cc(NC(=O)c3ccc(N4CCN5CCOC[C@H]5C4)c4nccnc34)cc(F)c2n1` [Compound 256, (R)—N-(8-fluoro-2-methylimidazo[1,2-a]pyridin-6-yl)-8-(hexahydropyrazino[2,1-c][1,4]oxazin-8(1H)-yl)quinoxaline-5-carboxamide], the 50% inhibitory concentration (IC50) in the series on HTT mRNA, with MYB mRNA, in the series on SMN2 mRNA, in the series on HiBiT-tagged MYB protein, in the series with HiBiT-tagged HTT protein and in the series with Target C was 1000 to 10000 nM in each case. Moreover, the Viability entry in the series with K562 cells is on record as “C (C represents 1000-9999 nM)”.
In the case of `Cc1cn2cc(NC(=O)c3ccc(N4CC(C)NC(C)C4)c4nc(C)c(C)nc34)cc(F)c2n1` (stereo not drawn) [Compound 257], the IC50 in the series on HTT mRNA was 1000 to 10000 nM; with MYB mRNA it was 100 to 1000 nM; in the series on SMN2 mRNA, less than 100 nM; in the series on HiBiT-tagged MYB protein, 1000 to 10000 nM; with HiBiT-tagged HTT protein, 1000 to 10000 nM; with Target C, 1000 to 10000 nM. Moreover, the Viability result in the series on K562 cells was “B (B represents 100-1000 nM)”.
`Cc1cn2cc(NC(=O)c3ccc(N4CCC(NC5CC5)CC4)c4nccnc34)cc(F)c2n1` [Compound 258, 8-(4-(cyclopropylamino)piperidin-1-yl)-N-(8-fluoro-2-methylimidazo[1,2-a]pyridin-6-yl)quinoxaline-5-carboxamide]: the IC50 was 100 to 1000 nM with HTT mRNA; 100 to 1000 nM in the series with MYB mRNA; less than 100 nM in the series on SMN2 mRNA; less than 100 nM with HiBiT-tagged MYB protein; 100 to 1000 nM with HiBiT-tagged HTT protein; 100 to 1000 nM in the series on Target C. Moreover, the Viability entry in the series on K562 cells is given as “B (B represents 100-1000 nM)”.
In the case of `Cc1cn2cc(NC(=O)c3ccc(N4CCC(NC5CC5)CC4)c4ccnnc34)cc(F)c2n1` [Compound 259, 5-[4-(cyclopropylamino)piperidin-1-yl]-N-{8-fluoro-2-methylimidazo[1,2-a]pyridin-6-yl} cinnoline-8-carboxamide], the IC50 is 100 to 1000 nM in the series with HTT mRNA; less than 100 nM with MYB mRNA; less than 100 nM with SMN2 mRNA; less than 100 nM with HiBiT-tagged MYB protein; 100 to 1000 nM in the series on HiBiT-tagged HTT protein; 1000 to 10000 nM in the series with Target C. The Viability result with K562 cells is recorded as “A (A represents <100 nM)”.
As to `COc1nc2c(N3C[C@@H](C)N[C@@H](C)C3)ccc(C(=O)Nc3cc(F)c4nc(C)cn4c3)c2nc1C` [Compound 260, 8-((3R,5S)-3,5-dimethylpiperazin-1-yl)-N-(8-fluoro-2-methylimidazo[1,2-a]pyridin-6-yl)-2-methoxy-3-methylquinoxaline-5-carboxamide; 2,2,2-trifluoroacetate], the IC50 was 100 to 1000 nM in the series with HTT mRNA; 100 to 1000 nM in the series with MYB mRNA; less than 100 nM in the series with SMN2 mRNA; less than 100 nM in the series on HiBiT-tagged MYB protein; 1000 to 10000 nM with HiBiT-tagged HTT protein; 1000 to 10000 nM in the series on Target C. The Viability entry in the series with K562 cells is on record as “C (C represents 1000-9999 nM)”.
Consider `Cc1cn2cc(NC(=O)c3c(F)cc(N4C[C@@H](C)N[C@@H](C)C4)c4nccnc34)cc(F)c2n1` [Compound 261, cis-8-[(3R,5S)-3,5-dimethylpiperazin-1-yl]-6-fluoro-N-{8-fluoro-2-methylimidazo[1,2-a]pyridin-6-yl}quinoxaline-5-carboxamide], for which the IC50 with HTT mRNA was 1000 to 10000 nM; with MYB mRNA, less than 100 nM; in the series on SMN2 mRNA it was less than 100 nM; in the series on HiBiT-tagged MYB protein it was less than 100 nM; in the series with HiBiT-tagged HTT protein it was 1000 to 10000 nM; in the series with Target C, 1000 to 10000 nM. The Viability entry in the series with K562 cells is given as “B (B represents 100-1000 nM)”.
